PMC10870243 (Clinical and Translational Science, 2024)
Where two headings read alike, the source gives them in different places. Blank lines part the entries; values can stand above or below the molecule they belong to.

Legend:
[1] = assay type: in vivo, human
[2] = Phase I DDI study: safety and tolerability; assay type: in vivo, human; conditions: for overall safety and tolerability: healthy participants, clesacostat 15 mg b.i.d., ervogastat 300 mg b.i.d.
CYP3A [3] = assay: In vitro CYP3A time-dependent inhibition; assay type: in vitro ADME; conditions: 0–300 μM
P‐glycoprotein (Pgp) = P‐glycoprotein (Pgp) (Homo sapiens, UniProt P08183); assay: In vitro efflux transporter study, P-glycoprotein; assay type: in vitro ADME
Sequence of P‐glycoprotein (Pgp) (P08183 whole entry): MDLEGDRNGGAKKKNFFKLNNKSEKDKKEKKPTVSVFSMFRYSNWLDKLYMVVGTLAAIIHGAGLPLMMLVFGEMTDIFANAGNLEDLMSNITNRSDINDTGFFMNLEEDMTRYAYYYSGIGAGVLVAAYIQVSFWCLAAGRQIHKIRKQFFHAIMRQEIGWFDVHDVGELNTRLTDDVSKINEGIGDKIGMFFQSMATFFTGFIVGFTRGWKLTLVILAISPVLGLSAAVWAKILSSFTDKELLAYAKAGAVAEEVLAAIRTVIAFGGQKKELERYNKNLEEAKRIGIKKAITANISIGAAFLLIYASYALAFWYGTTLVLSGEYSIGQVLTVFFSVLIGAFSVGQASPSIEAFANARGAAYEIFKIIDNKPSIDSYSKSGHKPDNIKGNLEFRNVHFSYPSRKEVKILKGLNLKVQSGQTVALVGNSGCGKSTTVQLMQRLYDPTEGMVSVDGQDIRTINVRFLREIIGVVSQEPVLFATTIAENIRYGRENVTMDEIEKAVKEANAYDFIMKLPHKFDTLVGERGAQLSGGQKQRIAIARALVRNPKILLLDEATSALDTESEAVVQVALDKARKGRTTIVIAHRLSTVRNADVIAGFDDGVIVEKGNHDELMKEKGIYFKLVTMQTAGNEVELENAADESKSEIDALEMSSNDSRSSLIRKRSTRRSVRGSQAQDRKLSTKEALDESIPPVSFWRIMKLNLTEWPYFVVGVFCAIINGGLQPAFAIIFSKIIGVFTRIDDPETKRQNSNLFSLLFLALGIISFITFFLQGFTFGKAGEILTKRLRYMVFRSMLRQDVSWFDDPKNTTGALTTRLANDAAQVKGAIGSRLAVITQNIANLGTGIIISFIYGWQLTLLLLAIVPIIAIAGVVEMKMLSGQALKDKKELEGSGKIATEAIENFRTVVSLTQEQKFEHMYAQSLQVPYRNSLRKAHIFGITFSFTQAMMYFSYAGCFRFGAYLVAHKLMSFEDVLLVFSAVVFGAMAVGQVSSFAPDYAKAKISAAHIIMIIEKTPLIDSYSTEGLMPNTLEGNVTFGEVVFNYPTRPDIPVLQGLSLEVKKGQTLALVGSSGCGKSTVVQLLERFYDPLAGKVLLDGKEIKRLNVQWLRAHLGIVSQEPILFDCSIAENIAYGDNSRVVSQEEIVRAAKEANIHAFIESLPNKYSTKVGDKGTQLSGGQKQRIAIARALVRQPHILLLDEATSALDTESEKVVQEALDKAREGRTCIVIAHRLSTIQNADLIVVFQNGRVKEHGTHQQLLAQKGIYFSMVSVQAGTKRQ

[4] = biological target: T1, breast cancer resistance protein (BCRP) (Homo sapiens, UniProt Q9UNQ0); assay: In vitro efflux transporter study, BCRP; assay type: in vitro ADME
T1 sequence (Q9UNQ0 1-655): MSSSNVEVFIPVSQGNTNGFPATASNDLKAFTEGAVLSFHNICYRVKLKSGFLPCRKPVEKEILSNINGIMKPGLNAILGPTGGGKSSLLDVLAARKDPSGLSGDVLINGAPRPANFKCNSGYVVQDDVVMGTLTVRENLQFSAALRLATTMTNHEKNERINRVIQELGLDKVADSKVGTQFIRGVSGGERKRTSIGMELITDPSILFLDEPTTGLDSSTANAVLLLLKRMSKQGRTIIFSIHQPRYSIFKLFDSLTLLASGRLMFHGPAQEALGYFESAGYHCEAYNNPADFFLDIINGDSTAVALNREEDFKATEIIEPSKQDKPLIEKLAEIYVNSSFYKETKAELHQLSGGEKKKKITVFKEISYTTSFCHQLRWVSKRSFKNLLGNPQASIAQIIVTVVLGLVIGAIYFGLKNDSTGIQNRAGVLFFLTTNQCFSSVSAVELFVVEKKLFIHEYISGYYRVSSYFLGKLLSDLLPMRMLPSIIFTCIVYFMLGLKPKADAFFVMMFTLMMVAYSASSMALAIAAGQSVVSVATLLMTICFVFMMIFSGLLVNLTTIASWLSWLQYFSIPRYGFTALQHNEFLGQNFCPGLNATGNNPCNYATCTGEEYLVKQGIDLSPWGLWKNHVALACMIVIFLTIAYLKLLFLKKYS

[5] = assay type: in vivo, human; conditions: for T max / Tmax: median (range); for PTR (peak-to-trough ratio): geometric mean; for CL/F: geometric mean (%CV); for Tmax: T max
CYP3A [6] = assay: In vitro CYP3A induction in human hepatocytes; assay type: in vitro ADME
CYP3A [7] = conditions: healthy adults, total daily dose ≤720 mg; cited from earlier work
[8] = clesacostat 15 mg b.i.d. co-administered with ervogastat 300 mg b.i.d.
[9] = same participant, Day 9 (7 days clesacostat alone then 2 days with ervogastat)
[10] = ervogastat 300 mg + clesacostat 15 mg b.i.d., Day 14
[11] = ervogastat 300 mg b.i.d. alone, Day 7

SMILES: COc1cc(C(=O)N2CCC3(CC2)CC(=O)c2c(cnn2C(C)C)C3)cc(-c2ccc(C(=O)O)cc2)n1 [clesacostat]
- decrease in mean systemic exposure based on AUCtau [1, 8]: 19%
- decrease in mean systemic exposure based on C max [1, 8]: 12%
- AUC ([1]; human, plasma, oral, 15 mg): 12100 ng·h/mL
- Cmax ([1]; human, plasma, oral, 15 mg): 1340 ng/mL
- Tmax ([1]; human, plasma, oral, 15 mg): 4 h
- overall safety and tolerability [2]: generally safe and well tolerated
- ALT elevation [2, 9]: 3.8 × ULN
- AST elevation [2, 9]: 2.9 × ULN
- GGT elevation [2, 9]: 3.3 × ULN
- composite slope based on observed inactivation rate constant (k obs) (CYP3A [3]; midazolam as probe): 0.0271 mL/min/µmol
- composite slope based on observed inactivation rate constant (k obs) (CYP3A [3]; testosterone as probe): 0.0239 mL/min/µmol
- substrate for Pgp (P‐glycoprotein (Pgp)): substrates
- substrate for BCRP [4]: substrates

- T max ([5]; ervogastat 300 mg + clesacostat 15 mg b.i.d., Day 14, n=9): 2.00 (1.00–2.00) h
- PTR (peak-to-trough ratio) [5, 10]: 150
- CL/F [5, 10]: 31.76 (34) L/h
- T max ([5]; ervogastat 300 mg b.i.d. alone, Day 7, n=9): 2.00 (1.00–4.00) h
- PTR (peak-to-trough ratio) [5, 11]: 94.3
- CL/F [5, 11]: 34.41 (19) L/h
- AUC ([5]; human, plasma, oral, 300 mg): 8720 ng·h/mL
- Cmax ([5]; human, plasma, oral, 300 mg): 2390 ng/mL
- Tmax ([5]; human, plasma, oral, 300 mg, ervogastat 300 mg b.i.d. alone, Day 7, n=9): ~2 h
- Tmax ([5]; human, plasma, oral, ervogastat 300 mg + clesacostat 15 mg b.i.d., Day 14, n=9): ~2 h
- EC50 (CYP3A [6]): 21.4 to 37.2 µM
- inhibition of Pgp (P‐glycoprotein (Pgp)): may inhibit
- substrate for Pgp (P‐glycoprotein (Pgp)): substrates
- inhibition of BCRP [4]: may inhibit
- substrate for BCRP [4]: substrates
SMILES: CCOc1cccnc1Oc1cncc(-c2ncc(C(=O)N[C@H]3CCOC3)cn2)c1 [ervogastat]
- overall safety and tolerability [2]: generally safe and well tolerated
- change in 4β-hydroxycholesterol (CYP3A [7]): no changes
